ChEMBL document CHEMBL3044592, “Synthesis, antiproliferation, and docking studies of N-phenyl-lipoamide and 8-mercapto-N-phenyloctanamide derivatives: effects of C6 position thiol moiety” (2012)

Tests used:
Test in all cases: cells
Assay type in all cases: functional
Settings in all cases: Homo sapiens, read-out: GI
NCI-H460 = test system: NCI-H460
Description: Growth inhibition of Homo sapiens (human) NCI-H460 cells at 100 ug/ml by MTT assay

KB = test system: KB
Description: Growth inhibition of Homo sapiens (human) KB cells at 100 ug/ml by MTT assay

Bel-7402 = test system: Bel-7402
Description: Growth inhibition of Homo sapiens (human) Bel7402 cells at 100 ug/ml by MTT assay

Structure (SMILES): O=C(CCCCCCCS)Nc1ccccc1 [8-MERCAPTO-OCTANOIC ACID PHENYLAMIDE]
- inhibition of growth at 100 µg/mL (NCI-H460): 32.4%
- inhibition of growth at 100 µg/mL (KB): 18.6%

Structure (SMILES): CC(=O)SCCCCCCCC(=O)Nc1ccccc1
- inhibition of growth at 100 µg/mL (NCI-H460): 82.3%
- inhibition of growth at 100 µg/mL (KB): 77%
- inhibition of growth at 100 µg/mL (Bel-7402): 66.3%
